# From publication PMC12752606, “METTL10‐Mediated PIAS3 Methylation Links Purine Metabolism to Gastric Cancer Progression” (Advanced Science, 2025)
# Residues, ends and D or L forms follow the SMILES beside them. *: point of attachment. Cbz = O=C(OCc1ccccc1)*
# How the values were obtained:
# [1] = tested on: MITF protein levels in HA-PIAS3-overexpressing MKN45 cells; assay: Immunoblotting of MITF in PIAS3-overexpressing cells treated with MG132; assay type: cell-based; conditions: MG132 5 µM for 5 h
# Description: (§1) Protein extraction from tissues or cells was performed by lysis buffer (20 mM Tris‐HCl (pH 7.5), 150 mM NaCl, 1 mM EDTA, 1 mM EGTA, 2.5 mM sodium pyrophosphate, 1 mM β‐glycerolphosphate, 1% Triton X‐100) supplemented with 1% phenylmethylsulfonyl fluoride (PMSF; Solarbio, P0100) and protease inhibitor cocktail (Apexbio, K1007) and lysed at 4 °C for 60 min, followed by centrifugation at 12000 g for 15 min at 4 °C. For Immunoblotting, the protein concentration was determined using the Pierce BCA Protein Assay Kit (Thermo Fisher Scientific, A55864). The protein samples were denatured by boiling in SDS‐PAGE loading buffer. For immunoprecipitation, antibodies were incubated with Dynabeads Protein G (Thermo, 10004D) at 4 °C for 4 h. The supernatant was then incubated with magnetic beads conjugated with antibodies or anti‐FLAG‐M2 magnetic beads (Sigma–Aldrich, M8823) at 4 °C overnight. Following incubation, the magnetic beads were washed three times with lysis buffer and then boiled in SDS‐PAGE loading buffer. The proteins were separated by sodium dodecyl sulfate polyacrylamide gel electrophoresis (SDS‐PAGE) with One‐Step PAGE Gel Fast Preparation Kit (Vazyme), and then transferred to the PVDF Membrane (Bio‐Rad). After blocking with a protein‐free rapid blocking buffer (Epizyme, PS108P) for 15 min, the membranes were incubated with primary antibodies at 4 °C overnight. […]
# [2] = tested on: MITF levels in MKN45 cells; assay: Immunoblotting of MITF in METTL10-knockdown cells treated with MG132; assay type: cell-based; conditions: MG132 5 µM for 5 hours
# Description: as §1
smiles,measurement,setting,value
CC(C)C[C@@H](C=O)NC(=O)[C@H](CC(C)C)NC(=O)[C@H](CC(C)C)NC(=O)OCc1ccccc1 [MG132] (Cbz-Leu-Leu-Leu-aldehyde),PIAS3-mediated degradation of MITF,[1],inhibited
same,Effect on decrease in MITF levels caused by knockdown of METTL10,[2],completely eliminated the decrease in MITF levels
